# Biological target: T1, histamine 3 receptor (H3R) (Homo sapiens, UniProt Q9Y5N1)
# T1 construct: expressed in transfected cells; host or cells: CHO cells (HR3-CHO cell line), membranes
# Assay: Binding assay with 3H-(R)α-methylhistamine (competition binding, membranes of the human HR3-CHO cell line)
# Settings: competition against 3H(R)α-Methylhistamine (1 nM), Ki calculated from IC50 by Cheng-Prusoff
# Description: Binding assay with ^3H—(R)α-methylhistamine
# Saturation binding experiments were performed using HR3-CHO membranes prepared as described in Takahashi, K, Tokita, S., Kotani, H. (2003) J. Pharmacol. Exp. Therapeutics 307, 213-218.
# An appropriate amount of membrane (60 to 80 μg protein/well) was incubated with increasing concentrations of ^3H(R)α-Methylhistamine di-hydrochloride (0.10 to 10 nM). Non specific binding was determined using a 200 fold excess of cold (R)α-Methylhistamine dihydrobromide (500 nM final concentration). The incubation was carried out at room temperature (in deep-well plates shaking for three hours). The final volume in each well was 250 μl. The incubation was followed by rapid filtration on GF/B filters (pre-soaked with 100 μl of 0.5% PEI in Tris 50 mM shaking at 200 rpm for two hours). The filtration was made using a cell-harvester and the filter plates were then washed five times with ice cold washing buffer containing 0.5 M NaCl. After harvesting, the plates were dried at 55° C. for 60 min, then we added scintillation fluid (Microscint 40, 40 microl in each well) and the amount of radioactivity on the filter was determined in Packard top-counter after shaking the plates for two hours at 200 rpm at room temperature.
# Binding Buffer: 50 mM Tris-HCl pH 7.4 and 5 mM MgCl2×6H2O pH 7.4. Washing Buffer: 50 mM Tris-HCl pH 7.4 and 5 mM MgCl2×6H2O and 0.5 M NaCl pH 7.4.
# Indirect measurement of affinity of H3R inverse agonists: twelve increasing concentrations (ranging from 10 μM to 0.3 nM) of the selected compounds were always tested in competition binding experiments using membrane of the human HR3-CHO cell line. An appropriate amount of protein, e.g. approximately 500 cpm binding of RAMH at Kd, were incubated for 1 hour at room temperature in 250 μl final volume in 96-well plates in presence of ^3H(R)α-Methylhistamine (1 nM final concentration=Kd). […]
# All compounds were tested at a single concentration in duplicates. […] Ki's were calculated from IC50 based on Cheng-Prusoff equation (Cheng, Y, Prusoff, W H (1973) Biochem Pharmacol 22, 3099-3108).
# T1 sequence (Q9Y5N1 whole entry): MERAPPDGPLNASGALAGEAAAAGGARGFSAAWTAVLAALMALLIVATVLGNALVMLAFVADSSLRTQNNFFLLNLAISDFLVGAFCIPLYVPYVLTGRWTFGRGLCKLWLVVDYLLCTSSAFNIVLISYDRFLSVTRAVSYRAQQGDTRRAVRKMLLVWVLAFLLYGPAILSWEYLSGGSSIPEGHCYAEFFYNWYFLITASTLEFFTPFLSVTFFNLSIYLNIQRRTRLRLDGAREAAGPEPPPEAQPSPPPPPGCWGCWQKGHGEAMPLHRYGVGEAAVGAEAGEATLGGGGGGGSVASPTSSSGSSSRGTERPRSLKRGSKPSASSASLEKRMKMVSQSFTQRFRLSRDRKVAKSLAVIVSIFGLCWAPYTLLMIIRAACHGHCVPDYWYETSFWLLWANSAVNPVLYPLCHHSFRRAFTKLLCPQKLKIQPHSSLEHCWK
row,Ki,SMILES
1,6.5 nM,"C[C@@H]1CCCN1CCCOc1ccc2c(c1)cc1n2CCNC1=O [Example 5, 8-[3-((R)-2-Methyl-pyrrolidin-1-yl)-propoxy]-3,4-dihydro-2H-pyrazino[1,2-a]indol-1-one]"
2,17.1 nM,"CC(C)N1CCC(Oc2ccc3c(c2)cc2n3CCCN(CC3CC3)C2=O)CC1 [Example 78, 2-Cyclopropylmethyl-9-(1-isopropyl-piperidin-4-yloxy)-2,3,4,5-tetrahydro-[1,4]diazepino[1,2-a]indol-1-one]"
3,28.8 nM,"C[C@H]1CCCN1CCCOc1cnc2c(c1)cc1n2CCN(CC(F)(F)F)C1=O [Example 92, 7-[3-((S)-2-Methyl-pyrrolidin-1-yl)-propoxy]-2-(2,2,2-trifluoro-ethyl)-3,4-dihydro-2H-2,4a,5-triaza-fluoren-1-one]"
